Data: patent US20220218679A1, “NOVEL COMPOUNDS AND PHARMACEUTICAL COMPOSITIONS THEREOF FOR THE TREATMENT OF INFLAMMATORY DISORDERS” (Galapagos NV, priority 2019, published 2022)
Like-named read-outs stand apart in the source and are kept apart here.

Experiments:
human IRAK-4 = target: T1, human IRAK-4 (Homo sapiens, UniProt Q9NWZ3); experiment: Phosphorylation IC50 determination for human IRAK-4 (ADP-Glo kinase assay); assay type: biochemical; conditions: RIP140 substrate, Km ATP, read-out: IRAK4 IC50
T1 construct: purchased Carna Biosciences 09 145
T1 sequence (Q9NWZ3 1-460): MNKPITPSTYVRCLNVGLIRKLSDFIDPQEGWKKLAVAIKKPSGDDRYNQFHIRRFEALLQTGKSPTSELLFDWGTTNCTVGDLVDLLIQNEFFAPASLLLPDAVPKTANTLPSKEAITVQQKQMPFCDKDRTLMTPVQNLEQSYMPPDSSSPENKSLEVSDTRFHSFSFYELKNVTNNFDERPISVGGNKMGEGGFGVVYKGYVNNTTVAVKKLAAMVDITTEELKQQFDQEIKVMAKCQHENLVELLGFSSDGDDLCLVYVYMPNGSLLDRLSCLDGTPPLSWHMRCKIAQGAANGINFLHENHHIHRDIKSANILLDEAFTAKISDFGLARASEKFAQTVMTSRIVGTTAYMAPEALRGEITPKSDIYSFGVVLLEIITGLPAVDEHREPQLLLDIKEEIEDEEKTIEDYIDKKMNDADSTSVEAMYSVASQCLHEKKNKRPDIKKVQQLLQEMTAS
Method: 3.1. Phosphorylation IC50 Determination for Human IRAK-4
The phosphorylation of the substrate RIP140 (SEQ IDi1) by IRAK4 at Km ATP was detected with the ADP-Glo Kinase Assay (Promega, Cat #V9103), a luminescent kinase assay which measures the ADP formed from a kinase reaction. (Zegzouti et al., 2009) In a second step the kinase reaction is terminated and all the remaining ATP was depleted. In a final step the ADP was converted into ATP and this newly synthesized ATP was measured by using a luciferase/luciferin reaction with a luminescent reader. The luminescent signal positively correlated with kinase activity, in particular kinase inhibition giving a decrease of the luminescent signal.
For the semi-automated assay, the positive control (100% inhibition) was prepared by diluting 10 mM staurosporine stock mixture (20 μL) in water (3.8 mL) and DMSO (180 μL), thus resulting in a […] staurosporine solution at 1% DMSO (final concentration after further dilution in the kinase reaction).
For the automated assay, no pre-dilution of the 10 mM staurosporine stock was made. 10 mM staurosporine was spotted directly in the assay plate using acoustic dispensing and complemented with DMSO to result in a similar final concentration as mentioned above.
For the semi-automated assay, the negative control (0% inhibition) was prepared by mixing water (3.8 mL) and DMSO (200 μL) resulting in a final concentration of 1% DMSO after further dilution in the kinase reaction. For the automated assay no pre-dilution of DMSO was done. 100% DMSO was spotted directly on the assay plate.
The assay buffer solution was prepared at a concentration corresponding to 5 fold the final (most diluted) assay concentration by mixing a solution of 125 mM TRIS pH 7.5+0.05% Triton X-100+2.5 mM EGTA (5.27 mL) with 1M MgCl2 (72 μL), 1M DTT (57.6 μL), and 200 mM MnCl2 (360 μL).
For example, for the semi-automated method, the enzyme-substrate mixture was prepared by mixing water (3999 μL), assay buffer solution (1380 μL), 1 mM RIP140 (138 μL—SEQ ID1), and 200 ng/mL IRAK 4 (3.45 μL Carna Biosciences, 09 145).
For semi-automated method, the ATP mixture was prepared at a concentration corresponding to 2.5 fold the final (most diluted) assay concentration of the semi-automated method and 1.5 fold the final (most diluted) assay concentration of the automated method. For example, for the semi-automated method, the ATP mixture was prepared by mixing water (4126 μL), assay buffer solution (1380 μL), and 10 mM ATP (13.80 μL).
The assay was performed either in a semi-automated or fully automated manner. The assay volume and the incubation time of the ADP detection were different accordingly the method used.
3.1.3.1. Semi-Automated Assay
The compounds were prepared as a serial dilution of 10 point dose responses with 1/5 dilution steps in 100% DMSO starting from 2 mM highest concentration, diluted 1/20 in water. 1 μL was transferred dry to the assay plates.
On each assay plate 32 wells of each control (positive & negative) were added, followed by 2 μL enzyme-substrate mixture.
The reaction was started by adding 2 μL diluted ATP (final concentration Km ATP) on the assay plates. Plates were centrifuged for a few seconds at 1000 rpm followed by an incubation at r.t. for 120 min.
The reactions were stopped and the unconsumed ATP was depleted by adding 5 μL ADP-glo Reagent (Promega, Cat #V9103) to the reaction. The plates were quickly centrifuged at 1000 rpm and incubated at r.t. for 40 min corresponding to full ATP depletion.
The ADP was converted back to ATP and luciferase and luciferin were introduced to detect ATP by adding 10 μL kinase detection reagent (Promega, Cat #V9103) to the reaction. The plates were centrifuged for a few seconds at 1000 rpm and incubated at r.t. for a further 30 min.
Luminescent read out was performed on an Envision luminescent reader (Perkin Elmer). […]

Thermodynamic solubility = assay type: physicochemical; conditions: 37 °C, thermodynamic from solid
Source text: 4.2. Thermodynamic Solubility
Poor solubility, in particular poor thermodynamic solubility can limit the absorption of compounds from the gastrointestinal tract which in turn may reduce oral bioavailability.
Thermodynamic solubility investigates the solubility of a compound as a saturated solution in equilibrium, by opposition to kinetic solubility, which measures the solubility of a metastable solution where supersaturation may occur and provide over estimation of the actual solubility of the compound. (Klein, 2010)
4.2.2. Thermodynamic Solubility—Protocol 2
In a 8 mL glass vial, 1-2 mg of dry matter of compound were added and stirred with the suitable buffers (Fed State Simulated Intestine Fluid, FeSSIF, or Fasted State Simulated Intestine Fluid, FaSSIF, or Fasted State Simulated Gastric Fluid, FaSSGF, or phosphate buffer pH 7.4) for 24 h at r.t. (for the buffer pH 7.4) or 37° C. (for the GI fluids). The concentration of the mixture was 1 mg/mL.
A volume of 1000 μL were sampled, centrifuged for 10 min at 10 000 rpm and 500 μL of the supernatant were filtered on captiva plate. The samples were diluted in duplicates in DMSO (F100 and F10). Then, a final dilution (F100) in 80/20 H2O/MeCN containing the internal standard (warfarin) was used for LCMS-MS analysis.
A standard curve was made starting from a 40,000 ng/mL stock in DMSO, freshly prepared from dry matter. Then, successive concentrations at 15,000, 11,000, 6,000, 2,500, 1,000, 375, 150 and 75 ng/mL in DMSO were prepared.
Three quality control samples were made: one of 10,000, 1,500 and 200 ng/mL in DMSO, also starting from the DMSO working stock solution at 40,000 ng/mL.
The standard curve and quality controls were diluted a F100 in 80/20 H2O/MeCN (with internal standard) and analyzed on LC/MS-MS (API4000 or API5500).
The samples were analyzed on LC-MS with a flow rate of 0.6 mL/min. The mobile phase A was 0.1% formic acid in water and the mobile phase B was 0.1% formic acid in 90% MeCN and 10% of H2O. The sample was run under positive or negative ion spray on Pursuit C18—5 μm (2.0×20 mm) column, from Agilent.
The ratio analyte/internal standard peaks areas of the standard curve were plotted in a graph and a linear or polynomial of the second order equation was used to calculate the unknown concentrations of the test compound.
Solubility values were reported in μg/mL.

[1] = test system: CL097 triggered IFNα release in human whole blood; experiment: Ex vivo human IFNα release inhibition (human whole blood assay); assay type: cell-based; conditions: Homo sapiens, CL097 2 μg/mL, 3 h 30 min at 37° C.
Source text: (§1) 4.10.1. Ex Vivo Human IFNα and TNFα Release Inhibition (Human Whole Blood Assay)
(§2) The aim of the assay is to evaluate the activity of compounds of the invention on the activated TLR/IRAK-4 pathway in an ex vivo human whole blood setting. Toll-like receptors (TLRs) are pattern recognition receptors that recognize a wide variety of microbial molecules, called pathogen-associated molecular patterns (PAMPs). Human TLR7 and TLR8 recognize imidazoquinoline compounds (e.g., CL097—CAS n #1026249-18-2) and single stranded RNAs as their natural ligands. Activation of TLRs leads to the production of several cytokines (e.g., IFNα, TNFα, IL-8, IL-6) by the TLR agonist-treated cells, whereas IRAK4 leads to the production of IFNα. Cytokine release is used as readout in this assay and represents a measure for the level of inhibition of the TLR/IRAK-4 pathway by the tested compound. It should be noted that in the context of the complete organism, other sources for these cytokines exist that are not dependent on the TLR/IRAK-4 pathway, such as e.g., macrophages (upon activation of the Fcγ receptor (Yan et al., 2012)) or T cells (upon activation of the T cell receptor (Brehm et al., 2005)).
(§3) 4.10.1.1. Experimental Design
(§4) Blood was collected from healthy volunteers into lithium heparin tubes by venipuncture, then gently inverted several times to prevent clotting and incubated for at least 15 min at 37° C. on a rocking mixer shaker. Then, 100 μL of blood was dispensed into polypropylene 96-well microplate and pre-incubated in duplicate with 0.3% DMSO or test compound at different concentrations (from 30 to 0.01 μM, 3-fold dilutions to get 0.3% DMSO at the final) for 15 min at 37° C. After this pre-incubation, blood was triggered with CL097 (2 μg/mL from 1 mg/mL solution in water; InvivoGen, tlrl-c97) for 3 h 30 min at 37° C. Microtubes were centrifuged at 5000×g for 10 min at 4° C. and approximately 40 μL of plasma were collected into a polystyrene 96-well plate. Plasma could be analyzed freshly, within 30 min after triggering, or frozen at −80° C. Finally, the quantification of TNFα and IFNα were performed in the plasma using AlphaLISA Kit for TNFα and IFNα according to the manufacturer's instructions and read on the Ensight (PerkinElmer).
A standard curve was created by plotting on log-log the mean […] on the y-axis against the concentration on the x-axis and a 4-parameters logistic regression (4PL) was made through the points. For each blood sample, the IFNα concentrations of the samples were determined from the fit. Data were then expressed as a percentage of inhibition (PIN) for each replicate using the formula:
With mean IFNα with CL097=mean IFNα concentration of replicate samples triggered with CL097; IFNαsample1=IFNα concentration of sample 1; mean IFNα with vehicle=mean IFNα concentration of replicate samples treated with vehicle.
(§5) Curve fitting for pIC50 determination were generated using mean PIN±sem. Graphs and pIC50 calculations were derived using Prism 5.03 software (GraphPad).

[2] = test system: CL097 triggered TNFα release in human whole blood; experiment: Ex vivo human TNFα release inhibition (human whole blood assay); assay type: cell-based; conditions: Homo sapiens, CL097 2 μg/mL, 3 h 30 min at 37° C.
Source text: as §1, §2, §3, §4
For each blood sample, the TNFα concentrations of the samples were determined from the fit. Data were then expressed a percentage of inhibition PIN for each replicate using the formula:
With mean TNFα with CL097=mean TNFα concentration of replicate samples triggered with CL097; TNFαsample1=TNFα concentration of sample 1; mean TNFα with vehicle=mean TNFα concentration of replicate samples treated with vehicle.
as §5

Row | IC50 (human IRAK-4) [nM] | solubility thermodynamic at 24 h (Thermodynamic solubility; Fasted State Simulated Gastric Fluid (FaSSGF), fassgf or other biorelevant, Fasted State Simulated Gastric Fluid, read-out: Tsol FaSSGF) [µg/mL] | solubility thermodynamic at 24 h (Thermodynamic solubility; Fasted State Simulated Intestine Fluid (FaSSIF), fassif, Fasted State Simulated Intestine Fluid, read-out: Tsol FaSSIF) [µg/mL] | IC50 [1] [nM] | IC50 [2] [nM] | Compound
1 | 5 to 10 | < 0.75 | < 0.75 |  |  | CNC(=O)c1cn2nc(C3CCOCC3)cc2cc1NC(=O)c1cccc(C(F)(F)F)n1 [Compound 14, N-methyl-2-tetrahydropyran-4-yl-5-[[6-(trifluoromethyl)pyridine-2-carbonyl]amino]pyrazolo[1,5-a]pyridine-6-carboxamide]
2 | 5 to 10 |  |  | 500 to 1000 | 0.1 to 500 | COc1cn2nc(CCS(C)(=O)=O)cc2cc1NC(=O)c1cccn(C2CC2)c1=O [Compound 6, 1-cyclopropyl-N-[6-methoxy-2-(2-methylsulfonylethyl)pyrazolo[1,5-a]pyridin-5-yl]-2-oxo-pyridine-3-carboxamide]
3 | 0.1 to 5 |  |  |  |  | NC(=O)c1cn2nc(C3CCOCC3)cc2cc1NC(=O)c1cccc(C(F)(F)F)n1 [Compound 11, 2-tetrahydropyran-4-yl-5-[[6-(trifluoromethyl)pyridine-2-carbonyl]amino]pyrazolo[1,5-a]pyridine-6-carboxamide]
